Experimental findings from patent US11613531B2, “Inhibitors of RHO associated coiled-coil containing protein kinase” (Kadmon Corporation, LLC, priority 2017, dated 2023) are described below.

Like-named read-outs stand apart in the source and are kept apart here.

Usually IC50 stands for the point on the concentration scale where inhibition reaches its midpoint.

Assay [1] concerns the target Recombinant ROCK2 (amino acids 1-552) (Homo sapiens (Human), UniProt O75116). Put plainly: Z′-Lyte kinase assay, ROCK2. The assay is classed as biochemical. The conditions noted are these: for inhibition at 1 µM: 1 μM compound, read-out: ROCK2 % inh. @ [conc]. In short, it runs like this:
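Recombinant human ROCK1 (aa 1-535) or ROCK2 (aa 1-552) activity read by Z′-Lyte kinase assay. Percent inhibition at 1 μM compound was normalized to DMSO control; IC50 from 9-point 2-fold serial dilutions by nonlinear regression.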

Assay [2] concerns ppMlc (T18/S19) levels in A7R5 cells. The experiment in a line: A7R5 in-cell ELISA (pMLC). The class given is cell-based, Rat. The conditions noted are these: Rattus norvegicus, A7R5, A7R5 cells; for inhibition at 1 µM: 1 μM compound; for inhibition at 1 µM / inhibition at 10 µM: read-out: pMLC % inh A7R5 @ [conc]; for inhibition at 10 µM: 10 μM compound; for IC50: ppMlc (T18/S19). Summed up:
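A7R5 rat aortic smooth muscle cells seeded 24 h, then treated 90 min with a 9-point 2-fold compound dilution series. Fixed cells probed for ppMlc (T18/S19) by colorimetric in-cell ELISA; cellular IC50 from nonlinear regression curve fit.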
On the technique in general: ELISA stands for enzyme-linked immunosorbent assay.

Where [3] appears, read: 9 points 2-fold serial dilution.

Recombinant ROCK2 (amino acids 1-552), sequence (O75116 1-552): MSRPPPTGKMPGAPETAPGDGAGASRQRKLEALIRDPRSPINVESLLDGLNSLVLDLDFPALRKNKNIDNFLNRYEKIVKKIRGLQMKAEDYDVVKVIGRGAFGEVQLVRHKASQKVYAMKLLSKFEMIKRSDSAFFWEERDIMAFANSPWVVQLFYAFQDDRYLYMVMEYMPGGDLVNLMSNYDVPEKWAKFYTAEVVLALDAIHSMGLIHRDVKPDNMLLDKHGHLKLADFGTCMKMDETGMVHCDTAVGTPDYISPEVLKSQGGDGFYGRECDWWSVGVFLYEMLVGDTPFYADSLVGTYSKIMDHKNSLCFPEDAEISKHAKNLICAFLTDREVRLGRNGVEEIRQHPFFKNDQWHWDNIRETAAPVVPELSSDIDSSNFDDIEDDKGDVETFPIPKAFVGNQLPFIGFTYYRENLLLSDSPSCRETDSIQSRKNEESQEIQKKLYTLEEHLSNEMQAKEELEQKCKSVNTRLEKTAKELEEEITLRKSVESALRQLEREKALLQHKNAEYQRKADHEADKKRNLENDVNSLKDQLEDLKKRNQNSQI

For the compound `Cc1cc(Nc2ccc3[nH]ncc3c2)nc(N2CC3CCC(C2)N3)n1` [Example 119, N-(2-(3,8-diazabicyclo[3.2.1]octan-3-yl)-6-methylpyrimidin-4-yl)-1H-indazol-5-amine], the inhibition at 1 µM was 90.1% in assay [1] and 17.7% in assay [2].
`Cc1cc(Nc2ccc3[nH]ncc3c2)nc(N2CC3CC(C2)N3)n1` [Example 120, N-(2-(3,6-diazabicyclo[3.1.1]heptan-3-yl)-6-methylpyrimidin-4-yl)-1H-indazol-5-amine]: the inhibition at 1 µM in assay [1] was found to be 93.1%; in assay [2] it was 23.4%.
For `Cc1cc(Nc2ccc3[nH]ncc3c2)nc(N2CC3CNCC(C3)C2)n1` [Example 130, N-(2-(3,7-diazabicyclo[3.3.1]nonan-3-yl)-6-methylpyrimidin-4-yl)-1H-indazol-5-amine], in that order: 93.4% and 27.7%.
On to `Cc1cc(Nc2ccc3[nH]ncc3c2)nc(N2CCC3NCCC3C2)n1` (centres unmarked) [Example 131, N-(6-methyl-2-(octahydro-5H-pyrrolo[3,2-c]pyridin-5-yl)pyrimidin-4-yl)-1H-indazol-5-amine], for which the inhibition at 1 µM in assay [1] worked out at 74.1%; in assay [2], 12.7%.
For `Cc1cc(Nc2ccc3[nH]ncc3c2)nc(N2CCC3CNCC3CC2)n1` (centres unmarked) [Example 132, N-(6-methyl-2-(octahydropyrrolo[3,4-d]azepin-6(1H)-yl)pyrimidin-4-yl)-1H-indazol-5-amine], in assay [1], the IC50 was 245 nM and the inhibition at 1 µM was determined as 81.8%. The inhibition at 1 µM in assay [2] amounted to 19.6%.
Turning to `Cc1cc(Nc2ccc3[nH]ncc3c2)nc(N2CCN3CCNCC3C2)n1` (centres unmarked) [Example 133, N-(6-methyl-2-(octahydro-2H-pyrazino[1,2-a]pyrazin-2-yl)pyrimidin-4-yl)-1H-indazol-5-amine], the inhibition at 1 µM in assay [1] amounted to 15.2%; in assay [2], 3.1%.
As for `Cc1cc(Nc2ccc3[nH]ncc3c2)nc(N2CC3CNC3C2)n1` (centres unmarked) [Example 134, N-(2-(3,6-diazabicyclo[3.2.0]heptan-3-yl)-6-methylpyrimidin-4-yl)-1H-indazol-5-amine], the half-maximal inhibitory concentration (IC50) in assay [1] is 11 nM. The inhibition at 1 µM in assay [2] worked out at 29.9%.
For the compound `Cc1cc(Nc2ccc3[nH]ncc3c2)nc(N2CC(C3CCNCC3)c3ccccc32)n1` (centres unmarked) [Example 137, N-(6-methyl-2-(3-(piperidin-4-yl)indolin-1-yl)pyrimidin-4-yl)-1H-indazol-5-amine], the results for the inhibition at 1 µM in assay [1] and in assay [2] were 21.6% and 24.4%, respectively.
On to `Cc1cc(Nc2ccc3[nH]ncc3c2)nc(N2CC3(CCNCC3)c3ccccc32)n1` [Example 138, N-(6-methyl-2-(spiro[indoline-3,4′-piperidin]-1-yl)pyrimidin-4-yl)-1H-indazol-5-amine], for which the inhibition at 1 µM came out at 9.1% in assay [1] and 15.2% in assay [2].
With `CC1CN(c2ncc(F)c(Nc3ccc4[nH]ncc4c3)n2)CCN1` (centres unmarked) [Example 140, N-(5-fluoro-2-(3-methylpiperazin-1-yl)pyrimidin-4-yl)-1H-indazol-5-amine], the inhibition at 1 µM in assay [1] was 88%. In assay [2], the inhibition at 10 µM was 63.5% and the concentration for half-maximal inhibition (IC50) is 734 nM.
Take `CCC1CNCCN1c1ncc(F)c(Nc2ccc3[nH]ncc3c2)n1` (centres unmarked) [Example 143, N-(2-(2-ethylpiperazin-1-yl)-5-fluoropyrimidin-4-yl)-1H-indazol-5-amine]: the inhibition at 1 µM in assay [1] turned out to be 59.3%. Also, in assay [2], the inhibition at 10 µM was 49.8% and the concentration for half-maximal inhibition (IC50) turned out to be 2150 nM.
For the compound `CCC1CCN(c2ncc(F)c(Nc3ccc4[nH]ncc4c3)n2)CCN1` (centres unmarked) [Example 146, N-(2-(5-ethyl-1,4-diazepan-1-yl)-5-fluoropyrimidin-4-yl)-1H-indazol-5-amine], in assay [1], the inhibition at 1 µM was 71.8%. In addition, in assay [2], the inhibition at 10 µM was determined as 50.2% and the IC50 stood at 2060 nM.
Consider `CC(C)C1CN(c2ncc(F)c(Nc3ccc4[nH]ncc4c3)n2)CCN1` (centres unmarked) [Example 147, N-(5-fluoro-2-(3-isopropylpiperazin-1-yl)pyrimidin-4-yl)-1H-indazol-5-amine], for which the inhibition at 1 µM in assay [1] worked out at 37.6%. For the same compound, in assay [2], the inhibition at 10 µM stood at 47.8%.
As for `CCC1CN(c2ncc(F)c(Nc3ccc4[nH]ncc4c3)n2)CCCN1` (centres unmarked) [Example 148, N-(2-(3-ethyl-1,4-diazepan-1-yl)-5-fluoropyrimidin-4-yl)-1H-indazol-5-amine], the inhibition at 1 µM in assay [1] turned out to be 55.1%. The inhibition at 10 µM in assay [2] stood at 46%.
Consider `CCC1CN(c2ncc(F)c(Nc3ccc4[nH]ncc4c3)n2)CCN1` (centres unmarked) [Example 149, N-(2-(3-ethylpiperazin-1-yl)-5-fluoropyrimidin-4-yl)-1H-indazol-5-amine], for which the inhibition at 1 µM in assay [1] stood at 71.4%. Also, the inhibition at 10 µM in assay [2] worked out at 49.4%.
In the case of `CC1CN(c2ncc(F)c(Nc3ccc4[nH]ncc4c3)n2)CC(C)N1` (centres unmarked) [Example 150, N-(2-(3,5-dimethylpiperazin-1-yl)-5-fluoropyrimidin-4-yl)-1H-indazol-5-amine], the inhibition at 1 µM in assay [1] worked out at 43.2%. Also, in assay [2], the inhibition at 10 µM is 44.4% and the 50% inhibitory concentration (IC50) turned out to be 4970 nM.
Turning to `CC1CN(c2ncc(F)c(Nc3ccc4[nH]ncc4c3)n2)CCCN1` (centres unmarked) [Example 151, N-(5-fluoro-2-(3-methyl-1,4-diazepan-1-yl)pyrimidin-4-yl)-1H-indazol-5-amine], in assay [1], the inhibition at 1 µM is 87.4%. The IC50 in assay [1] (setting [3]) was 80 nM. The inhibition at 10 µM in assay [2] is 55.1%.
Take `CC1CCN(c2ncc(F)c(Nc3ccc4[nH]ncc4c3)n2)CCN1` (centres unmarked) [Example 152, N-(5-fluoro-2-(5-methyl-1,4-diazepan-1-yl)pyrimidin-4-yl)-1H-indazol-5-amine]: in assay [1], the inhibition at 1 µM came out at 77%. For the same compound, in assay [2], the inhibition at 10 µM turned out to be 50.7% and the IC50 was 1030 nM.
Take `Fc1cnc(N2CCNC3(CC3)C2)nc1Nc1ccc2[nH]ncc2c1` [Example 153, N-(5-fluoro-2-(4,7-diazaspiro[2.5]octan-7-yl)pyrimidin-4-yl)-1H-indazol-5-amine]: in assay [1] (setting [3]), the IC50 turned out to be 556 nM. Also, the inhibition at 1 µM in assay [2] was 23.8%.
For the compound `CC1CN(c2ncc(F)c(Nc3ccc4[nH]ncc4c3)n2)C(C)CN1` (centres unmarked) [Example 155, N-(2-(2,5-dimethylpiperazin-1-yl)-5-fluoropyrimidin-4-yl)-1H-indazol-5-amine], the results for the inhibition at 1 µM in assay [1] and in assay [2] were 82.1% and 25%, respectively.
Take `Fc1cnc(N2CC3CC(C2)N3)nc1Nc1ccc2[nH]ncc2c1` [Example 157, N-(2-(3,6-diazabicyclo[3.1.1]heptan-3-yl)-5-fluoropyrimidin-4-yl)-1H-indazol-5-amine]: in assay [1] (setting [3]), the half-inhibitory concentration (IC50) was 89 nM. The inhibition at 1 µM in assay [2] was 27.2%.
For `Fc1cnc(N2CC3CNCC(C3)C2)nc1Nc1ccc2[nH]ncc2c1` [Example 167, N-(2-(3,7-diazabicyclo[3.3.1]nonan-3-yl)-5-fluoropyrimidin-4-yl)-1H-indazol-5-amine], the inhibition at 1 µM is 88.2% in assay [1] and 22.5% in assay [2].
In the same order, the values of `Fc1cnc(N2CCN3CCNCC3C2)nc1Nc1ccc2[nH]ncc2c1` (centres unmarked) [Example 173, N-(5-fluoro-2-(octahydro-2H-pyrazino[1,2-a]pyrazin-2-yl)pyrimidin-4-yl)-1H-indazol-5-amine] are 17.6% and 1.3%.
With `Fc1cnc(N2CC3CNC3C2)nc1Nc1ccc2[nH]ncc2c1` (centres unmarked) [Example 174, N-(2-(3,6-diazabicyclo[3.2.0]heptan-3-yl)-5-fluoropyrimidin-4-yl)-1H-indazol-5-amine], the IC50 in assay [1] came out at 35 nM. For the same compound, the inhibition at 1 µM in assay [2] came to 26.3%.
With `Fc1cnc(N2CC3(CCNCC3)c3ccccc32)nc1Nc1ccc2[nH]ncc2c1` [Example 176, N-(5-fluoro-2-(spiro[indoline-3,4′-piperidin]-1-yl)pyrimidin-4-yl)-1H-indazol-5-amine], the figures for the inhibition at 1 µM in assay [1] and in assay [2] were 0% and 14.5%, respectively.
As for `Fc1cnc(N2CC(C3CCCNC3)c3ccccc32)nc1Nc1ccc2[nH]ncc2c1` (centres unmarked) [Example 177, N-(5-fluoro-2-(3-(piperidin-3-yl)indolin-1-yl)pyrimidin-4-yl)-1H-indazol-5-amine], the inhibition at 1 µM turned out to be 9.5% in assay [1] and 10.2% in assay [2].
Take `CC1CNCCN1c1ncc(Cl)c(Nc2ccc3[nH]ncc3c2)n1` (centres unmarked) [Example 179, N-(5-chloro-2-(2-methylpiperazin-1-yl)pyrimidin-4-yl)-1H-indazol-5-amine]: the inhibition at 1 µM in assay [1] was determined as 77.6%. For the same compound, in assay [2], the inhibition at 10 µM was found to be 67.4% and the half-inhibitory concentration (IC50) was determined as 1540 nM.
Consider `CC1CN(c2ncc(Cl)c(Nc3ccc4[nH]ncc4c3)n2)CCN1` (centres unmarked) [Example 180, N-(5-chloro-2-(3-methylpiperazin-1-yl)pyrimidin-4-yl)-1H-indazol-5-amine], for which the inhibition at 1 µM in assay [1] amounted to 73.8%. In addition, in assay [2], the inhibition at 10 µM came out at 62.6% and the IC50 was found to be 1460 nM.
As for `CC(C)C1CN(c2ncc(Cl)c(Nc3ccc4[nH]ncc4c3)n2)CCN1` (centres unmarked) [Example 185, N-(5-chloro-2-(3-isopropylpiperazin-1-yl)pyrimidin-4-yl)-1H-indazol-5-amine], the inhibition at 1 µM in assay [1] came out at 19.7%. Further, the inhibition at 10 µM in assay [2] came to 41.6%.
Regarding `CCC1CN(c2ncc(Cl)c(Nc3ccc4[nH]ncc4c3)n2)CCCN1` (centres unmarked) [Example 186, N-(5-chloro-2-(3-ethyl 4-diazepan-1-yl)pyrimidin-4-yl)-1H-indazol-5-amine], in assay [1], the inhibition at 1 µM came out at 47.8%. Further, the inhibition at 10 µM in assay [2] was 47.7%.
For the compound `CCC1CCN(c2ncc(Cl)c(Nc3ccc4[nH]ncc4c3)n2)CCN1` (centres unmarked) [Example 188, N-(5-chloro-2-(5-ethyl-1,4-diazepan-1-yl)pyrimidin-4-yl)-1H-indazol-5-amine], in assay [1], the inhibition at 1 µM was determined as 44.9%. For the same compound, the inhibition at 10 µM in assay [2] was determined as 47.9%.
